US4231946A, “14,15-Methylene derivatives of the estrane series and methods for preparing same” (VEB Jenapharm, priority 1978, dated 1980)
Where two headings read alike, the source gives them in different places.

Experiments:
[1] = tested on: mice (uterine fresh weight); assay: Uterine activity in mice (dose for doubling uterine fresh weight); type: in vivo, mouse; conditions: for Total dose for doubling uterine fresh weight: p.o.; for Uterine response / uterine activity (in words): Table 6
Source text: (§1) Uterine and contraceptive activities produced by selected
(§2) 14,15-methylene-17-ol-estratrienes in mice

[2] = General statement on antifertility effects and separation from uterine, estrogenic and antigonadotrophic activities; type: in vivo
mice = assay: Contraceptive activity in mice, single application on 1st day of gestation; type: in vivo, mouse; conditions: for THE, % after single application of 10 mg/kg of body-wt. on the 1st day of gestation p.o.: mice, 10 mg/kg p.o.; for Contraceptive activities related to IHE1 (ranking in words): among the other compounds of Table 6
Description: (§3) Gestation and nidation inhibition expressed in % were used as parameters for antifertility effects. GHE1 (gestation inhibitory effect) and IHE1 (nidation inhibitory effect) were related to the inhibition of the total of gestations or nidations, GHE2 and IHE2 were related to the inhibition of normal gestations or nidations within each group. […] GHE1, GHE2, IHE1 and IHE2 were calculated using the following formulae: [formula] n=number of females inseminated in each group v=test group
(§4) f=average number (x) of all implantations (IHE1) and of normal implantations (IHE2) p. female inseminated within a group, respectively.
(§5) For GHE1 and GHE2 the ED (effective doses) for the HE (inhibitory effect) 0%, 50%, and 95% as far as possible were determined by means of the probit analysis. The ED50 for IHE1 and IHE2 were determined graphically.
as §1, §2

inseminated rats = assay: Antinidation / Nidation Inhibition Test in inseminated rats treated on the 1st day of gestation; type: in vivo, rat; conditions: for ED50 / ED5 / ED95: Rattus norvegicus, po, STS 593 from trial No. 2; for Female rats pregnant of n, normal / Female rats pregnant of n, total / GHE1 / GHE2 / IHE1 / IHE2 / Implantations per female (-x), normal / Implantations per female (-x), total: mestranol 0.2 mg/kg p.o.
Source text: The favorable biological properties of the named compounds of the process according to the invention are to be further illustrated and described in the example of 3-methoxy-14β-15β-methylene-estra-1,3,5(10)-triene-17β-ol (test designation STS 593).
as §3
k=control group (sesame oil)
x=number of all gestations (GHE1) and of normal gestations (GHE2) p. group, respectively
as §4
The comparison of the relative incidence of gestations was performed by the Ryan test, the comparison of the number of implantations by the Dunn test.
as §5

infantile rabbit uteri = assay: McPhail test, progestagenic and antiprogestagenic activities in infantile rabbit uteri; type: in vivo; conditions: progesterone 4 mg/animal s.c. alone, total dose over 4 days; n=6
Source text: The HE of 97.3% is significant (Table 5).
Progestagenic and antiprogestagenic activities of STS 593
in infantile rabbit uteri as shown by the McPhail test

rats (testicular mass) = assay: Antigonadotrophic activity (testicular mass) in rats; type: in vivo, rat; conditions: Rattus norvegicus, 120 h; rats; read-out: Effective dose for the HE50, antigonadotrophic
Description: The effective dose for the HE50 was close to 0.65 mg/kg of body-wt./5 d, while mestranol has the same effect at a dose as low as 0.15 mg/kg of body-wt./5 d.

[3] = tested on: infantile female Wistar rats; assay: Uterine activity in infantile female Wistar rats; type: in vivo, Wistar rat; conditions: n=10
Source text: STS 593 was weaker than ethynylestradiol by a factor of 9 in its estrogenic properties as shown by the Allen-Doisy test in ovariectomized mice. The compound was only 7% as active as the standard mestranol in producing a uterine response in infantile rats (Table 3), whereas the antiestrogenic properties exceeded those of clomiphene citrate by a factor of 1.4.
Comparison of uterine activity in infantile female
Wistar rats produced by STS 593 and mestranol

[4] = determined graphically, read-out: ED 50 for IHE1
[5] = determined graphically, read-out: ED 50 for IHE2
[6] = probit analysis, read-out: ED 05 for GHE1
[7] = probit analysis, read-out: ED 05 for GHE2
[8] = probit analysis, read-out: ED 50 for GHE1
[9] = probit analysis, read-out: ED 50 for GHE2
[10] = probit analysis, read-out: ED 95 for GHE1
[11] = probit analysis, read-out: ED 95 for GHE2

COc1ccc2c(c1)CC[C@@H]1[C@@H]2CC[C@]2(C)C(OC(=O)Nc3ccccc3)CC3C[C@@]312 (stereo partly drawn) [STS 595, 17phenylaminocarbonyloxy-14β,15methylene-estra-1,3,5(10)-triene-3-mehylether]
Total dose for doubling uterine fresh weight [1]: 100 μg/animal

COc1ccc2c(c1)CC[C@@H]1[C@@H]2CC[C@]2(C)[C@H](O)C[C@H]3C[C@@]312 [STS 592, 3-methoxy-14β-15β-methylene-estra-1,3,5(10)-triene-17α-ol]
Separation of desirable contraceptive and undesirable estrogenic effects ([2]; mice, among the compounds of Table 6): most favorable separation
THE, % after single application of 10 mg/kg of body-wt. on the 1st day of gestation p.o. (mice): 35.0%
Uterine response / uterine activity (in words) [1]: distinctly weaker uterine activities
Total dose for doubling uterine fresh weight [1]: 7.0 μg/animal

COc1ccc2c(c1)CC[C@@H]1[C@@H]2CC[C@]2(C)[C@@H](O)C[C@@H]3C[C@]312 [STS 651, 3-methoxy-14α,15α-methylene-estra-1,3,5(10)-triene-17β-ol]
Contraceptive activities related to IHE1 (ranking in words) (mice): strongest contraceptive activities
THE, % after single application of 10 mg/kg of body-wt. on the 1st day of gestation p.o. (mice): 84.4%
Uterine response / uterine activity (in words) [1]: strongest uterine response
Total dose for doubling uterine fresh weight [1]: 0.2 μg/animal
ED50 (inseminated rats; [4]): 0.107 mg/kg
ED50 (inseminated rats; [5]): 0.096 mg/kg
ED5 (inseminated rats; [6]): 0.059 mg/kg
ED5 (inseminated rats; [7]): 0.043 mg/kg
ED50 (inseminated rats; [8]): 0.183 mg/kg
ED50 (inseminated rats; [9]): 0.11 mg/kg
ED95 (inseminated rats; [10]): 0.583 mg/kg
ED95 (inseminated rats; [11]): 0.265 mg/kg

COc1ccc2c(c1)CC[C@@H]1[C@@H]2CC[C@]2(C)C(OC(=O)Nc3ccccc3)CC3C[C@@]312 (stereo partly drawn) [STS 594, 17phenylaminocarbnoyloxy-14β,15methylene-estra-1,3,5(10)-triene-3-mehylether]
Total dose for doubling uterine fresh weight [1]: 100 μg/animal

C#C[C@]1(O)CC[C@H]2[C@@H]3CCc4cc(O)ccc4[C@H]3CC[C@@]21C [Ethynylestradiol, reference compound]
ED50 (inseminated rats; [4]): 0.37 mg/kg
ED50 (inseminated rats; [5]): < 0.21 mg/kg
ED50 (inseminated rats; [8]): ≤ 0.45 mg/kg
ED50 (inseminated rats; [9]): < 0.3 mg/kg

CC(=O)[C@H]1CC[C@H]2[C@@H]3CCC4=CC(=O)CC[C@]4(C)[C@H]3CC[C@]12C [Progesterone, reference compound]
McPhail index (-x) (infantile rabbit uteri): 3.0

C#C[C@]1(O)CC[C@H]2[C@@H]3CCc4cc(OC)ccc4[C@H]3CC[C@@]21C [Mestranol, reference compound]
ED50 (rats (testicular mass)): 0.15 mg/kg
Uterine weight (-x) ([3]; mestranol total dose 0.6 per animal over 3 days p.o.): 70.11 mg
Uterine weight (-x) ([3]; mestranol total dose 6.0 per animal over 3 days p.o.): 95.45 mg
Female rats pregnant of n, normal (inseminated rats; 1st trial 1975, n=12): 1
Female rats pregnant of n, total (inseminated rats; 1st trial 1975, n=12): 11
GHE1 (inseminated rats; 1st trial 1975, n=12): 8.3%
GHE2 (inseminated rats; 1st trial 1975, n=12): 91.7%
IHE1 (inseminated rats; 1st trial 1975, n=12): 45.3%
IHE2 (inseminated rats; 1st trial 1975, n=12): 98.7%
Implantations per female (-x), normal (inseminated rats; 1st trial 1975, n=12): 0.2
Implantations per female (-x), total (inseminated rats; 1st trial 1975, n=12): 6.8
Female rats pregnant of n, normal (inseminated rats; 2nd trial 1978, n=10): 0
Female rats pregnant of n, total (inseminated rats; 2nd trial 1978, n=10): 6
GHE1 (inseminated rats; 2nd trial 1978, n=10): 40%
GHE2 (inseminated rats; 2nd trial 1978, n=10): 100%
IHE1 (inseminated rats; 2nd trial 1978, n=10): 70.8%
IHE2 (inseminated rats; 2nd trial 1978, n=10): 100%
Implantations per female (-x), normal (inseminated rats; 2nd trial 1978, n=10): 0
Implantations per female (-x), total (inseminated rats; 2nd trial 1978, n=10): 3.8
ED50 (inseminated rats; [4]): 0.17 mg/kg
ED50 (inseminated rats; [5]): 0.15 mg/kg
ED5 (inseminated rats; [6]): 0.097 mg/kg
ED5 (inseminated rats; [7]): 0.065 mg/kg
ED50 (inseminated rats; [8]): 0.34 mg/kg
ED50 (inseminated rats; [9]): 0.163 mg/kg
ED95 (inseminated rats; [10]): 1.11 mg/kg
ED95 (inseminated rats; [11]): 0.387 mg/kg

COc1ccc2c(c1)CC[C@@H]1[C@@H]2CC[C@@]2(C)[C@@]13C[C@@H]3C[C@]2(C)O [STS 681, 3-methoxy-17α-methyl-14β,15β-methylene-estra-1,3,5(10)-triene-17β-ol]
Antifertility effects (in words) ([2]; in vivo): strong antifertility effects
Separation of desirable contraceptive and undesirable uterine and antigonadotrophic activities ([2]; in vivo): very favorable separation
Contraceptive activities related to IHE1 (ranking in words) (mice): strongest contraceptive activities
THE, % after single application of 10 mg/kg of body-wt. on the 1st day of gestation p.o. (mice): 81.7%
Uterine response / uterine activity (in words) [1]: distinctly weaker uterine activities
Total dose for doubling uterine fresh weight [1]: 0.56 μg/animal

COc1ccc2c(c1)CC[C@@H]1[C@@H]2CC[C@]2(C)[C@H](O)C[C@@H]3C[C@]312 [STS 652, 3-methoxy-14α,15α-methylene-estra-1,3,5(10)-triene-17α-ol]
Separation of desirable contraceptive and undesirable uterine and antigonadotrophic activities ([2]; in vivo): very favorable separation
THE, % after single application of 10 mg/kg of body-wt. on the 1st day of gestation p.o. (mice): 60.0%
Uterine response / uterine activity (in words) [1]: distinctly weaker uterine activities
Total dose for doubling uterine fresh weight [1]: 3.0 μg/animal
